A short description of the data set: photoluminescence quantum yield (fraction); solvent given as SMILES.

Molecules are shown by their SMILES.

Compound `COc1cc(/C=C/C(=O)CC(=O)/C=C/c2ccc(O)c(OC)c2)ccc1O` yielded a photoluminescence quantum yield (in C1CCCCC1) of 0.014; a photoluminescence quantum yield (in CC#N) of 0.075; a photoluminescence quantum yield (in CN(C)C=O) of 0.022; a photoluminescence quantum yield (in CO) of 0.017; a photoluminescence quantum yield (in CS(C)=O) of 0.024; a photoluminescence quantum yield (in c1ccccc1) of 0.052.
Regarding `CCOc1cc2c(cc1/C=C/C1=CC(=C(C#N)C#N)CC(C)(C)C1)c1ccccc1n2CC`, the photoluminescence quantum yield is 0.021 (in C1CCOC1); 0.018 (in CC#N); 0.025 (in CCO); 0.026 (in CCOC(C)=O); 0.035 (in CN(C)C=O); 0.05 (in CS(C)=O). In addition, the photoluminescence quantum yield was found to be 0.008 (in Cc1ccccc1), 0.017 (in ClC(Cl)Cl) and 0.028 (in ClCCl).
With `CC(C)c1ccc(/C=C/c2nc3ccc(N(C)C)cc3s2)cc1`, the photoluminescence quantum yield (in C1CCCCC1) came to 0.51 and the photoluminescence quantum yield (in CC#N) is 0.54.
`CN(C)c1ccc(C2=Cc3c4ccccc4c4ccccc4[n+]3[B-](F)(F)O2)cc1` showed a photoluminescence quantum yield (in C1CCOC1) of 0.585; a photoluminescence quantum yield (in C1COCCO1) of 0.855; a photoluminescence quantum yield (in CC1CCCCC1) of 1; a photoluminescence quantum yield (in CC#N) of 0.447; a photoluminescence quantum yield (in CCOC(C)=O) of 0.655; a photoluminescence quantum yield (in CCOCC) of 0.999. In addition, the photoluminescence quantum yield was 0.323 (in CN(C)C=O), 0.471 (in CO), 0.441 (in COC(C)=O) and 0.811 (in ClC(Cl)Cl).
`Cc1ccc(/C2=c3\cc/c(o3)=C(\c3ccc(C)cc3)c3ccc([nH]3)-c3ccc4n3[B-](F)(F)[N+]3=C(C=CC3=C4c3ccco3)c3ccc2[nH]3)cc1` displayed a photoluminescence quantum yield (in ClC(Cl)Cl) of 0.08.
With `CN(C)c1ccc(-c2cc(-c3ccc(C#N)cc3)nc(-c3ccccc3)n2)cc1`, for the setting “in ClC(Cl)Cl”, the photoluminescence quantum yield is 0.44.
Consider `C=Cc1cc2ccccc2oc1=O`, for which, for the setting “in CC#N”, the photoluminescence quantum yield was determined as 0.08.
Compound `N#Cc1cc(-c2ccc(/C=C/c3ccc(N(c4ccccc4)c4ccccc4)cc3)c(C#N)c2)ccc1/C=C/c1ccc(N(c2ccccc2)c2ccccc2)cc1` registered a photoluminescence quantum yield (in ClCCl) of 0.37.
Take `C(=C\c1nc2ccccc2[nH]1)/c1ccc(-c2nc3c4cccnc4c4ncccc4c3[nH]2)cc1`: the photoluminescence quantum yield by setting is: (in C1CCOC1) 0.11; (in CC#N) 0.15; (in CO) 0.09; (in ClCCl) 0.07.
For `CCn1c2ccccc2c2cc(-c3cc(-c4ccc5c(c4)c4ccccc4n5CC)nc(S(C)(=O)=O)n3)ccc21`, the photoluminescence quantum yield (in C1CCOC1) amounted to 0.61; the photoluminescence quantum yield (in CCOC(C)=O) came to 0.76; the photoluminescence quantum yield (in CN(C)C=O) turned out to be 0.6; the photoluminescence quantum yield (in Cc1ccccc1) was found to be 0.77; the photoluminescence quantum yield (in ClCCl) amounted to 0.72.
In turn, `Cc1ccc(/C2=c3\cc/c(o3)=C(\c3ccc(C)cc3)c3ccc([nH]3)-c3ccc4n3[P-](=O)(=O)[N+]3=C(C=CC3=C4c3ccc[nH]3)c3ccc2[nH]3)cc1` had a photoluminescence quantum yield (in ClC(Cl)Cl) of 0.15.
For `c1csc(-c2ccc(-c3cccs3)c3nsnc23)c1`, the photoluminescence quantum yield (in ClC(Cl)Cl) stood at 0.59.
As for `Cn1cc(-c2nc3ccccc3nc2C#Cc2ccc(C#N)cc2)c2ccccc21`, the photoluminescence quantum yield (in ClCCl) came to 0.15.
Consider `COc1ccc(OC)c(C2=C3C=CC(=[N+](C)C)C=C3[Si](C)(C)c3cc(N(C)C)ccc32)c1`, for which the photoluminescence quantum yield (in O) worked out at 0.025.
The compound `CC(C)c1cccc(C(C)C)c1N1C(=O)c2cc(Cl)c3c4c(Cl)cc5c6c(cc(Cl)c(c7c(Cl)cc(c2c37)C1=O)c64)C(=O)N(c1c(C(C)C)cccc1C(C)C)C5=O` registered a photoluminescence quantum yield (in Cc1ccccc1) of 0.95.
For the compound `Cn1c(=O)c(/N=N/c2ccc(/N=N/c3ccc(S(=O)(=O)O)cc3)cc2)c(O)c2ccccc21`, for the setting “in CS(C)=O”, the photoluminescence quantum yield amounted to 0.05.
Compound `O=S1(=O)c2ccccc2C2(c3cc(-c4ccc(-n5c6ccccc6c6ccccc65)cc4)ccc3-c3ccc(-c4ccc(-n5c6ccccc6c6ccccc65)cc4)cc32)c2ccccc21` gave a photoluminescence quantum yield (in ClCCl) of 0.81 and a photoluminescence quantum yield (in c1cc(-n2c3ccccc3c3ccccc32)cc(-n2c3ccccc3c3ccccc32)c1) of 0.86.
On to `Cc1c(COC(=O)c2ccccc2)n2c(OCC(=O)c3ccccc3)c(C)c(=O)n2c1=O`, for which the photoluminescence quantum yield (in CCO) amounted to 0.839.
Compound `CCOC(=O)c1c2c3c(ccc([N+](=O)[O-])c3c3cc4ccccc4cc13)N(C)C2=O` registered a photoluminescence quantum yield (in CC#N) of 0.41.
On to `Cc1cc2cc(N3c4ccccc4Oc4ccccc43)ccc2c(=O)o1`, for which the photoluminescence quantum yield (in c1cc(-c2cccc(-n3c4ccccc4c4ccccc43)c2)cc(-n2c3ccccc3c3ccccc32)c1) was found to be 0.47.
In turn, `CCOC(=O)c1ccc(C2=CC3=c4cc(-c5ccc(C(=O)OCC)cc5)c5nc(C(F)(F)C(F)(F)C(F)(F)F)nc6c(-c7ccc(C(=O)OCC)cc7)cc(c4c65)C4=CC(c5ccc(C(=O)OCC)cc5)=C5N=C(C(F)(F)C(F)(F)C(F)(F)F)N=C2C5C43)cc1` (centres undefined) showed a photoluminescence quantum yield (in C1CCOC1) of 0.79.
As to `CCCCCCCCCCCCSc1cc2c3c(ccc4c5c(SCCCCCCCCCCCC)cc6c7c(ccc(c1c34)c75)C(=O)N(C1CCCCC1)C6=O)C(=O)N(C1CCCCC1)C2=O`, under “in ClC(Cl)Cl”, the photoluminescence quantum yield was determined as 0.155.
Turning to `Cc1cc2ccccc2cc1C`, for the setting “in C1CCCCC1”, the photoluminescence quantum yield was 0.56.
In the case of `CCOc1ccc2c(-c3nc(-c4ccccc4F)no3)cc(=O)oc2c1`, the photoluminescence quantum yield reads like this: (in CCO) 0.64; (in ClC(Cl)Cl) 0.36.
In the case of `N#CC(/N=C/c1ccccc1O)=C(C#N)/N=C/c1ccccc1O`, the photoluminescence quantum yield (in CC#N) was 0.017.
The compound `CCCCC(CC)COc1ccc2nc(-c3ccc(-c4ccc(N(C)C)cc4)s3)sc2c1` (centres undefined) yielded a photoluminescence quantum yield (in ClCCl) of 0.94.
`COc1cccc2cc(-c3ccc([N+](=O)[O-])cc3)c(=N)oc12`: the photoluminescence quantum yield amounted to 0.004 (in C1CCOC1), 0.0016 (in CC#N), 0.0021 (in CS(C)=O) and 0.023 (in ClC(Cl)Cl).
`COc1cc(C2=CC(c3ccccc3)=C(c3ccccc3)C2)cc(OC)c1OC`: the photoluminescence quantum yield (in ClCCl) came out at 0.0137.
The same measure, in the same setting: the figure for `C(=C\c1nc(/C=C/c2ccc(N(c3ccccc3)c3ccccc3)cc2)cc(/C=C/c2ccc(N(c3ccccc3)c3ccccc3)cc2)n1)/c1ccccc1` is 0.78.
Compound `CCOC(=O)c1ccc(C2=Cc3ccccc3P2(=O)c2ccccc2)cc1` (centres undefined) registered a photoluminescence quantum yield (in ClCCl) of 0.82.
Regarding `C[Si]1(C)C2=CC(=[N+]3CCC3)C=C(F)C2=Nc2c(F)cc(N3CCC3)cc21`, the photoluminescence quantum yield (in CCO) was found to be 0.11.
As to `c1cc2ccc3ccc4cc3c2cc1c1ccc2c(c1)c1cc(ccc1[C@]13OCCO[C@]21OCCO3)c1ccc2c(c1)c1cc4ccc1[C@]13OCCO[C@]21OCCO3`, under “in Cc1ccccc1”, the photoluminescence quantum yield worked out at 0.63.
As for `COc1cc(OC)cc(C2=[O+][B-](F)(F)OC(c3cccs3)=C2)c1`, the photoluminescence quantum yield (in CC#N) was determined as 0.002; the photoluminescence quantum yield (in CC(C)=O) was 0.01; the photoluminescence quantum yield (in CCCCCC) came to 0.16; the photoluminescence quantum yield (in Cc1ccccc1) was found to be 0.14; the photoluminescence quantum yield (in ClCCl) was 0.04.
In the case of `C[Si](C)(C)c1ccc2ccc3c([Si](C)(C)C)ccc4ccc1c2c43`, the photoluminescence quantum yield (in CCCCCC) came out at 0.42, the photoluminescence quantum yield (in CO) was found to be 0.5 and the photoluminescence quantum yield (in ClCCl) worked out at 0.5.
As to `Cc1ccccc1-c1ccccc1C`, the photoluminescence quantum yield (in C1CCCCC1) is 0.01.
Consider `O=S(=O)([O-])c1ccc(O)c2ccccc12`, for which the photoluminescence quantum yield (in C1COCCO1) was found to be 0.14; the photoluminescence quantum yield (in CC#N) amounted to 0.17; the photoluminescence quantum yield (in CC(C)O) came to 0.2; the photoluminescence quantum yield (in CCCCO) was 0.2; the photoluminescence quantum yield (in CCO) was found to be 0.18; the photoluminescence quantum yield (in CCOC(C)=O) was determined as 0.14. For the same compound, the photoluminescence quantum yield worked out at 0.14 (in CN(C)C=O), 0.16 (in CO) and 0.25 (in CS(C)=O).
As to `COc1cccc(OC)c1-c1c2ccc(=[N+]3CCN(C(=O)OC(C)(C)C)CC3)cc-2oc2cc(N3CCN(C(=O)OC(C)(C)C)CC3)ccc12`, under “in ClCCl”, the photoluminescence quantum yield came out at 0.49.
For `N#Cc1nn(-c2ccccc2C(F)(F)F)nc1N1CCCC1`, the photoluminescence quantum yield (in CC#N) was determined as 0.71.
Under “in C1CCCCC1”, `CCC(C)(C)c1ccc2c(c1)C(CC)(CC)c1cc(-c3ccc4c(c3)C(CC)(CC)c3cc(C(C)(C)CC)ccc3-4)ccc1-2` registered a photoluminescence quantum yield of 0.85.
Under “in O=P(c1ccccc1)(c1ccccc1)c1ccccc1Oc1ccccc1P(=O)(c1ccccc1)c1ccccc1”, `F[B-]1(F)Oc2ccccc2-c2cc(-n3c4ccccc4c4ccccc43)cc[n+]21` returned a photoluminescence quantum yield of 0.99.
For the compound `CCCN1/C(=C/C=C(/C=C/C2=[N+](CCC)c3ccccc3C2(C)C)c2ccncc2)C(C)(C)c2ccccc21`, the photoluminescence quantum yield runs as follows: (in CO) 0.24; (in CS(C)=O) 0.15; (in O) 0.07.
Regarding `CN(C)c1ccc(-c2nc3cccnc3[nH]2)cc1`, the photoluminescence quantum yield worked out at 0.72 (in C1CCCCC1) and 0.76 (in CC#N).
Take `CCCCCCN(CCCCCC)c1ccc(C#Cc2c(F)c(F)c(F)c(F)c2F)cc1`: the photoluminescence quantum yield amounted to 0.0014 (in CO) and 0.026 (in ClCCl).
For the compound `COC(=O)C[C@H](NC(=O)[C@H](Cc1c[nH]c2ccccc12)NC(=O)OC(C)(C)C)C(=O)OC`, the photoluminescence quantum yield runs as follows: (in CC#N) 0.36; (in CCOC(C)=O) 0.39; (in CO) 0.27.
With `CC1(C)C(/C=C/C2=C(c3ccc(C(=O)O)cc3)C(=C/C=C3/N(CCCCS(=O)(=O)[O-])c4ccc(S(=O)(=O)[O-])cc4C3(C)C)/CCC2)=[N+](CCCCS(=O)(=O)[O-])c2ccc(S(=O)(=O)[O-])cc21`, the photoluminescence quantum yield (in CO) turned out to be 0.1.
As to `Clc1cc(Cl)c([C](c2c(Cl)cc(Cl)cc2Cl)c2c(Cl)cc(-n3c4ccccc4c4ccccc43)cc2Cl)c(Cl)c1`, the photoluminescence quantum yield was 0.64 (in C1CCCCC1) and 0.06 (in ClC(Cl)Cl).
`Oc1ccccc1-c1nc(-c2ccccc2)c(-c2ccccc2)[nH]1` registered a photoluminescence quantum yield (in CO) of 0.25.
Under “in ClCCl”, `CC1(C)c2ccccc2N(c2ccc(-c3nc(-c4ccccn4)n(-c4ccccc4)n3)cc2)c2ccccc21` displayed a photoluminescence quantum yield of 0.0612.
